Tests used:
Assay type in all cases: cell-based
[1] = tested on: Chrysosporium keratinophilum; test: Agar plate disc-diffusion, antifungal; conditions: Sabouraud's dextrose agar, 72 hours
Method: (§1) The agar plate disc-diffusion method was applied. […] The discs were then placed onto the surface of agar plates (nutrient agar for bacteria and Sabouraud's dextrose agar for fungi) seeded with the test organism. Each plate contained 15 mL of the agar medium, previously seeded with 0.2 mL of the broth culture of each organism pregrown for 18 hours. The plates were incubated at 37° C. for 48 hours, and 72 hours for fungi. The inhibition zones was measured in mm. Discs impregnated with DMSO were used as a control, and its inhibition zone was subtracted from the tested compound actual inhibition zone.

[2] = tested on: Aspergillus flavus; test: Agar plate disc-diffusion, antifungal; conditions: Sabouraud's dextrose agar, 72 hours
Method: as §1

[3] = tested on: Staphylococcus aureus; test: Agar plate disc-diffusion, antibacterial; conditions: nutrient agar, 37° C., 48 hours
Method: as §1

[4] = tested on: Pseudomonas aeruginosa; test: Agar plate disc-diffusion, antibacterial; conditions: nutrient agar, 37° C., 48 hours
Method: as §1

[5] = tested on: Bacillus cereus; test: Agar plate disc-diffusion, antibacterial; conditions: nutrient agar, 37° C., 48 hours
Method: as §1

[6] = tested on: Escherichia coli; test: Agar plate disc-diffusion, antibacterial; conditions: nutrient agar, 37° C., 48 hours
Method: as §1

[7] = A = concentration of comp. = 10,000 μL
[8] = B = concentration of comp. = 30,000 μL
[9] = C = concentration of comp. = 50,000 μL
[10] = A = concentration of comp. = 10,000 μg/mL

O=C(O)c1cn(C2CC2)c2cc(N3CCNCC3)c(F)cc2c1=O [Cip., ciprofloxacin]
inhibition zone [1, 7]: 29 mm
inhibition zone [1, 8]: 30 mm
inhibition zone [1, 9]: 53 mm
inhibition zone [2, 7]: 29 mm
inhibition zone [2, 8]: 32 mm
inhibition zone [2, 9]: 42 mm
inhibition zone [3, 7]: 43 mm
inhibition zone [3, 8]: 44 mm
inhibition zone [3, 9]: 53 mm
inhibition zone [4, 10]: 29 mm
inhibition zone [4, 8]: 30 mm
inhibition zone [4, 9]: 53 mm
inhibition zone [5, 7]: 29 mm
inhibition zone [5, 8]: 31 mm
inhibition zone [5, 9]: 42 mm
inhibition zone [6, 7]: 30 mm
inhibition zone [6, 8]: 39 mm
inhibition zone [6, 9]: 60 mm

COc1ccc(-c2nc(-c3ccc(Br)cc3)c(-c3ccc(Br)cc3)n2CCCC(=O)O)cc1 [V, 4-(4,5-bis(4-bromophenyl)-2-(4-methoxyphenyl)-1H-imidazol-1-yl)butanoic acid]
inhibition zone [1, 7]: 26 mm
inhibition zone [1, 8]: 28 mm
inhibition zone [1, 9]: 50 mm
inhibition zone [2, 7]: 19 mm
inhibition zone [2, 8]: 21 mm
inhibition zone [2, 9]: 32 mm
inhibition zone [3, 7]: 18 mm
inhibition zone [3, 8]: 20 mm
inhibition zone [3, 9]: 30 mm
inhibition zone [4, 10]: 21 mm
inhibition zone [4, 8]: 24 mm
inhibition zone [4, 9]: 35 mm
inhibition zone [5, 7]: 28 mm
inhibition zone [5, 8]: 30 mm
inhibition zone [5, 9]: 41 mm
inhibition zone [6, 7]: 26 mm
inhibition zone [6, 8]: 35 mm
inhibition zone [6, 9]: 47 mm
